Data: patent US11357779B2 (G1 Therapeutics, Inc., priority 2018, dated 2022)
Like-named read-outs stand apart in the source and are kept apart here.

Test: Plasma concentration versus time of Compound I and metabolite Compound III in patients dosed QD or BID with Form B of Compound II plus fulvestrant
Type: in vivo, human
Details: human, plasma, oral; for concentration at 0 h / concentration at 1 h / concentration at 2 h / concentration at 3 h / concentration at 4 h / concentration at 6 h / concentration at 8 h / concentration at 10 h / concentration at 12 h / concentration at 24 h: read-out: Compound I Concentration; for concentration at 8 day / concentration at 15 day / concentration at 22 day: Cohort 4, 500 mg QD of Form B; for concentration at 8 day: Day 8; for concentration at 15 day: Day 15; for concentration at 22 day: Day 22
Source text: Patients were enrolled into 1 of 2 parallel, independently operating, dose-escalation dosing cohorts with Form B of Compound II administered continuously either once daily (QD) or twice daily (BID) with food with fixed-dose fulvestrant (intramuscularly every 14 days for the first three injections and then every 28 days). Pre- or perimenopausal patients also received goserelin for the duration of study treatment. A […] agonist was started at least 28 days before the first dose of Form B, and those patients who were taking another LHRH agonist were switched to goserelin on Day 1. Patients were split into […] cohorts providing once a day (QD) dosing of 200 mg, 300 mg, 400 mg, 500 mg, or 650 mg of Form B, or twice a day (BID) dosing of 100 mg, 150 mg, or 200 mg of Form B. The second dose in BID cohorts was not administered in the evening until at least 12 hours after the initial morning dose of Form B. The dosing cohorts for Form B of Compound II are provided in Table 1.
Blood samples were collected at the following time points relative to the morning dose of Form B at Day 1 and at Day 29: pre-dose (0 hour) and 1, 2, 3, 4, 6, 8, 10, 12 (prior to the evening dose in the BID cohorts), and 24 (prior to the next day's morning dose) hours after dosing. A 5-minute time window was allowed for samples collected between the predose and 3 hours after Form B dosing. A 15-minute window was allowed for samples collected between 4 to 12 hours after Form B dosing. A 1-hour window was allowed for the sample collected 24 hours after Form B dosing. Blood samples for Compound I PK trough levels were collected pre-dose at Day 8, Day 15, and Day 22 prior to the morning administration of Compound I. Plasma concentrations of Compound I and its metabolite, Compound III, were measured using validated methods.
Analysis of plasma concentration versus time data for calculation of standard pharmacokinetic (PK) parameters following oral administration was conducted using Phoenix WinNonlin version 6.3 using actual blood sampling times.

[1] = 500 mg, read-out: Trough Compound I Concentration, Max
[2] = 500 mg, read-out: Trough Compound I Concentration, Median

## CC(C)N1CCN(c2ccc(Nc3ncc4cc5n(c4n3)C3(CCCCC3)CNC5=O)nc2)CC1 [Compound I, 2′-((5-(4-isopropylpiperazin-1-yl)pyridin-2-yl)amino)-7′,8′-dihydro-6′H-spiro[cyclohexane-1,9′-pyrazino[1′,2′:1,5]pyrrolo[2,3-d]pyrimidin]-6′-one]
500 mg, 500 mg QD of Form B, Day 1, 0.0 h, Median
  concentration at 0 h: 0 ng/mL
500 mg, 500 mg QD of Form B, Day 1, 1.0 h, Mean
  concentration at 1 h: 10.4 ng/mL
500 mg, 500 mg QD of Form B, Day 1, 1.0 h, Median
  concentration at 1 h: 10.2 ng/mL
500 mg, 500 mg QD of Form B, Day 1, 2.0 h, Mean
  concentration at 2 h: 18.5 ng/mL
500 mg, 500 mg QD of Form B, Day 1, 2.0 h, Median
  concentration at 2 h: 18.1 ng/mL
500 mg, 500 mg QD of Form B, Day 1, 3.0 h, Mean
  concentration at 3 h: 34.3 ng/mL
500 mg, 500 mg QD of Form B, Day 1, 3.0 h, Median
  concentration at 3 h: 27.4 ng/mL
500 mg, 500 mg QD of Form B, Day 1, 4.0 h, Mean
  concentration at 4 h: 35.4 ng/mL
500 mg, 500 mg QD of Form B, Day 1, 4.0 h, Median
  concentration at 4 h: 35.3 ng/mL
500 mg, 500 mg QD of Form B, Day 1, 6.0 h, Mean
  concentration at 6 h: 46.5 ng/mL
500 mg, 500 mg QD of Form B, Day 1, 6.0 h, Median
  concentration at 6 h: 45.6 ng/mL
500 mg, 500 mg QD of Form B, Day 1, 8.0 h, Mean
  concentration at 8 h: 40.6 ng/mL
500 mg, 500 mg QD of Form B, Day 1, 8.0 h, Median
  concentration at 8 h: 42.3 ng/mL
500 mg, 500 mg QD of Form B, Day 1, 10.0 h, Mean
  concentration at 10 h: 32.2 ng/mL
500 mg, 500 mg QD of Form B, Day 1, 10.0 h, Median
  concentration at 10 h: 33.4 ng/mL
500 mg, 500 mg QD of Form B, Day 1, 12.0 h, Mean
  concentration at 12 h: 27.8 ng/mL
500 mg, 500 mg QD of Form B, Day 1, 12.0 h, Median
  concentration at 12 h: 28.3 ng/mL
500 mg, 500 mg QD of Form B, Day 1, […], Mean
  concentration at 24 h: 8.93 ng/mL
500 mg, 500 mg QD of Form B, Day 1, […], Median
  concentration at 24 h: 7.17 ng/mL
500 mg, 500 mg QD of Form B, Day 29, 0.0 h, Mean
  concentration at 0 h: 14.4 ng/mL
500 mg, 500 mg QD of Form B, Day 29, 0.0 h, Median
  concentration at 0 h: 15.3 ng/mL
500 mg, 500 mg QD of Form B, Day 29, 1.0 h, Mean
  concentration at 1 h: 21.2 ng/mL
500 mg, 500 mg QD of Form B, Day 29, 1.0 h, Median
  concentration at 1 h: 17.6 ng/mL
500 mg, 500 mg QD of Form B, Day 29, 2.0 h, Mean
  concentration at 2 h: 34.2 ng/mL
500 mg, 500 mg QD of Form B, Day 29, 2.0 h, Median
  concentration at 2 h: 33.8 ng/mL
500 mg, 500 mg QD of Form B, Day 29, 3.0 h, Mean
  concentration at 3 h: 40.3 ng/mL
500 mg, 500 mg QD of Form B, Day 29, 3.0 h, Median
  concentration at 3 h: 41.4 ng/mL
500 mg, 500 mg QD of Form B, Day 29, 4.0 h, Mean
  concentration at 4 h: 41.8 ng/mL
500 mg, 500 mg QD of Form B, Day 29, 4.0 h, Median
  concentration at 4 h: 44.9 ng/mL
500 mg, 500 mg QD of Form B, Day 29, 6.0 h, Mean
  concentration at 6 h: 41.5 ng/mL
500 mg, 500 mg QD of Form B, Day 29, 6.0 h, Median
  concentration at 6 h: 43.2 ng/mL
500 mg, 500 mg QD of Form B, Day 29, 8.0 h, Mean
  concentration at 8 h: 34.1 ng/mL
500 mg, 500 mg QD of Form B, Day 29, 8.0 h, Median
  concentration at 8 h: 33.5 ng/mL
500 mg, 500 mg QD of Form B, Day 29, 10.0 h, Mean
  concentration at 10 h: 26.7 ng/mL
500 mg, 500 mg QD of Form B, Day 29, 10.0 h, Median
  concentration at 10 h: 25.6 ng/mL
500 mg, 500 mg QD of Form B, Day 29, 12.0 h, Mean
  concentration at 12 h: 24.4 ng/mL
500 mg, 500 mg QD of Form B, Day 29, 12.0 h, Median
  concentration at 12 h: 25.2 ng/mL
500 mg, 500 mg QD of Form B, Day 29, […], Mean
  concentration at 24 h: 12.5 ng/mL
500 mg, 500 mg QD of Form B, Day 29, […], Median
  concentration at 24 h: 13 ng/mL
[1]
  concentration at 8 day: 23.5 ng/mL
  concentration at 15 day: 32.8 ng/mL
  concentration at 22 day: 27.3 ng/mL
[2]
  concentration at 8 day: 17.2 ng/mL
  concentration at 15 day: 23.9 ng/mL
  concentration at 22 day: 17.7 ng/mL
650 mg, 650 mg QD of Form B, Day 1, 0.0 h, Mean
  concentration at 0 h: 0 ng/mL
650 mg, 650 mg QD of Form B, Day 1, 0.0 h, Median
  concentration at 0 h: 0 ng/mL
650 mg, 650 mg QD of Form B, Day 1, 1.0 h, Mean
  concentration at 1 h: 12.7 ng/mL
650 mg, 650 mg QD of Form B, Day 1, 1.0 h, Median
  concentration at 1 h: 9.68 ng/mL
650 mg, 650 mg QD of Form B, Day 1, 2.0 h, Mean
  concentration at 2 h: 24.8 ng/mL
650 mg, 650 mg QD of Form B, Day 1, 2.0 h, Median
  concentration at 2 h: 19.1 ng/mL
650 mg, 650 mg QD of Form B, Day 1, 3.0 h, Mean
  concentration at 3 h: 30.9 ng/mL
650 mg, 650 mg QD of Form B, Day 1, 3.0 h, Median
  concentration at 3 h: 31.6 ng/mL
650 mg, 650 mg QD of Form B, Day 1, 4.0 h, Mean
  concentration at 4 h: 43.7 ng/mL
650 mg, 650 mg QD of Form B, Day 1, 4.0 h, Median
  concentration at 4 h: 43.5 ng/mL
650 mg, 650 mg QD of Form B, Day 1, 6.0 h, Mean
  concentration at 6 h: 52.7 ng/mL
650 mg, 650 mg QD of Form B, Day 1, 6.0 h, Median
  concentration at 6 h: 49.8 ng/mL
650 mg, 650 mg QD of Form B, Day 1, 8.0 h, Mean
  concentration at 8 h: 59.6 ng/mL
